According to PubChem BioAssay (NCI):
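Growth conditions: 96-well plates. Treatment: test compound, 48 hours, 5 concentrations. Analysis: linear interpolation between bracketing concentrations; unreached endpoints set to highest concentration. Abbreviation: GI50, concentration required for 50% inhibition of growth. TGI marks complete inhibition of growth.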

Experiments:
Assay in all cases: inhibition of tumour cell growth, NCI panel, 48 h
DU-145 prostate = system: DU-145 prostate
SNB-19 CNS = system: SNB-19 CNS
RPMI-8226 leukemia = system: RPMI-8226 leukemia
HOP-62 NSCLC = system: HOP-62 NSCLC
HCT-116 colon = system: HCT-116 colon
MCF7 breast = system: MCF7 breast
RXF 393 renal = system: RXF 393 renal
SK-MEL-28 melanoma = system: SK-MEL-28 melanoma
COLO 205 colon = system: COLO 205 colon
HL-60(TB) leukemia = system: HL-60(TB) leukemia

SMILES | TGI (DU-145 prostate) | TGI (SNB-19 CNS) | TGI (RPMI-8226 leukemia) | TGI (HOP-62 NSCLC) | TGI (HCT-116 colon) | TGI (MCF7 breast) | TGI (RXF 393 renal) | TGI (SK-MEL-28 melanoma) | TGI (COLO 205 colon) | TGI (HL-60(TB) leukemia) | GI50 (DU-145 prostate) | GI50 (RPMI-8226 leukemia) | GI50 (HL-60(TB) leukemia) | GI50 (COLO 205 colon)
O=S1(=O)C[C@@H](NCc2ccccc2)[C@H](NCc2ccccc2)C1 | > 100 µM | > 100 µM | > 100 µM | > 100 µM | > 100 µM | > 100 µM | > 100 µM | > 100 µM | > 100 µM | – | – | – | – | –
CN1N=C(c2ccncc2)OC1c1ccccc1F (stereo not given) | > 100 µM | > 100 µM | > 100 µM | > 100 µM | > 100 µM | – | > 100 µM | > 100 µM | > 100 µM | > 100 µM | – | – | – | –
COc1cc(C2c3cc4c(cc3[C@@H](Nc3ccc5c(c3)OCO5)C3COC(=O)[C@H]23)OCO4)cc(OC)c1O (stereo not given in full) | – | 30.1 µM | 8.59 µM | 0.715 µM | 15.7 µM | 10.1 µM | 6.15 µM | > 95.3 µM | 7.41 µM | 0.977 µM | – | – | – | –
c1ccc2c(c1)CCCC/C2=N/OCC1CO1 (stereo not given) | – | – | 72.9 µM | – | > 100 µM | – | > 100 µM | > 100 µM | > 100 µM | 44.1 µM | – | – | – | –
CCOC(=O)C1CCC(=O)N1C(=O)c1ccccc1Cl (stereo not given) | > 100 µM | > 100 µM | > 100 µM | > 100 µM | > 100 µM | > 100 µM | > 100 µM | > 100 µM | – | > 100 µM | – | – | – | –
O=C1c2cccc(O)c2C(=O)c2c(OC3OC(CO)C(O)C(O)C3O)cccc21 (stereo not given) | > 100 µM | > 100 µM | > 100 µM | > 100 µM | 51 µM | > 100 µM | 97.3 µM | > 100 µM | 39.2 µM | – | – | – | – | –
O=C1c2cccc(O)c2C(=O)c2c(O)cc(CO)cc21 | – | > 100 µM | > 100 µM | > 100 µM | > 100 µM | – | > 100 µM | > 100 µM | > 100 µM | > 100 µM | – | – | – | –
C[C@H]1OC(=O)[C@@H]2N=NN(Cc3ccccc3)[C@H]12 | > 100 µM | > 100 µM | > 100 µM | > 100 µM | > 100 µM | > 100 µM | > 100 µM | > 100 µM | > 100 µM | – | – | – | – | –
CN1CCN(C2=C(Cl)C3(OCCS3)C(F)(F)C2(F)F)CC1 (stereo not given) | > 100 µM | > 100 µM | > 100 µM | > 100 µM | > 100 µM | > 100 µM | > 100 µM | – | > 100 µM | > 100 µM | – | – | – | –
COc1cccc2c1OCC1Cc3ccccc3OC21 (stereo not given) | > 100 µM | – | > 100 µM | > 100 µM | > 100 µM | > 100 µM | – | – | 96.1 µM | – | – | – | – | –
Cc1c(-c2ccccc2)[nH]n(C2=NCCN2)c1=O | – | > 100 µM | > 100 µM | > 100 µM | > 100 µM | > 100 µM | > 100 µM | – | > 100 µM | > 100 µM | – | – | – | –
O=C(CC(C(=O)c1ccco1)c1ccco1)c1ccco1 (stereo not given) | > 100 µM | – | > 100 µM | > 100 µM | > 100 µM | > 100 µM | > 100 µM | > 100 µM | > 100 µM | > 100 µM | – | – | – | –
C/C(=C\CO)CC/C=C(\C)CNc1ccc([N+](=O)[O-])cc1 | > 100 µM | > 100 µM | – | > 100 µM | > 100 µM | > 100 µM | > 100 µM | > 100 µM | > 100 µM | 57.2 µM | – | – | – | –
CN(C)CCCNC(=O)c1c(O)c2ccccc2n(C)c1=O | > 100 µM | – | > 100 µM | > 100 µM | > 100 µM | > 100 µM | > 100 µM | > 100 µM | > 100 µM | > 100 µM | – | – | – | –
COc1ccc(NC(C)c2ccncc2)cc1 (stereo not given) | > 100 µM | > 100 µM | > 100 µM | > 100 µM | > 100 µM | > 100 µM | > 100 µM | > 100 µM | > 100 µM | – | – | – | – | –
COC(=O)[C@H](Cc1ccccc1)NC(=O)N(CCC#N)CCN(C(=O)N[C@@H](Cc1ccccc1)C(=O)OC)c1ccccc1 | 74.5 µM | > 100 µM | 43.9 µM | > 100 µM | 82.5 µM | > 100 µM | 37.7 µM | 33.9 µM | 56.2 µM | – | – | – | – | –
c1ccc(C2CC(=NC3CCCCC3)Nc3ccccc3N2)cc1 (stereo not given) | > 100 µM | > 100 µM | > 100 µM | > 100 µM | > 100 µM | – | > 100 µM | > 100 µM | > 100 µM | > 100 µM | – | – | – | –
CC(C)[Si](OC/C(=C/COC(C)(C)C)[C@H]1CC=C(C(=O)c2ccccc2N2CN(C)C(=O)N(C)C2)C1)(C(C)C)C(C)C | 29.9 µM | 24.9 µM | 15.6 µM | 31.5 µM | 4.97 µM | 15.1 µM | 17.5 µM | 12.9 µM | 31 µM | – | – | – | – | –
COc1ccc(/C=N/n2c(C)nc3c(sc(=S)n3-c3ccccc3)c2=O)cc1 | – | > 100 µM | > 100 µM | > 100 µM | > 100 µM | – | – | > 100 µM | > 100 µM | 61.2 µM | – | – | – | –
O=C1OC(c2ccccc2)N(C(=O)c2ccccc2)C1Cc1ccc(OCc2ccccc2)cc1 (stereo not given) | > 100 µM | > 100 µM | > 100 µM | > 100 µM | > 100 µM | 62.3 µM | – | > 100 µM | > 100 µM | > 100 µM | – | – | – | –
CC1(C)N=C2C(=O)c3c([nH]c4ccccc34)[C@]3(C)CCC1CC23 (stereo not given in full) | > 6.25 µM | – | > 6.25 µM | > 6.25 µM | > 6.25 µM | > 6.25 µM | > 6.25 µM | > 6.25 µM | > 6.25 µM | > 6.25 µM | – | – | – | –
O=C1C(C(O)(C(F)(F)F)C(F)(F)F)CCC1C(O)(C(F)(F)F)C(F)(F)F (stereo not given) | > 100 µM | > 100 µM | 13.5 µM | – | 13.1 µM | 2.26 µM | 26 µM | > 73.2 µM | 1.86 µM | 6.44 µM | – | – | – | –
CC(=O)Oc1c(C)c(C)c2c(c1C)CCC(C)(CC(=O)OCCCCCCCCCCC[P+](c1ccccc1)(c1ccccc1)c1ccccc1)O2 (stereo not given) | 1.34 µM | – | 1.15 µM | – | – | – | – | – | 1.39 µM | 0.926 µM | 0.384 µM | 0.237 µM | 0.228 µM | 0.391 µM
COc1cc(/C=C2\CCC(C)/C(=C\c3cc(OC)c(OC)c(OC)c3)C2=O)cc(OC)c1OC (stereo not given) | > 100 µM | 18.4 µM | 0.901 µM | 9.3 µM | > 100 µM | > 100 µM | 6.36 µM | 25.2 µM | 5.2 µM | – | – | – | – | –
